The structures appear in SMILES notation. Like-named read-outs stand apart in the source and are kept apart here.

As a reminder, the IC50 is the concentration that inhibits the measured activity by half.

Assay [1] has as its target T1, TRPA1 (Homo sapiens, UniProt O75762). Nature of the assay: Cell-based calcium assay (Fluo-4 fluorescence) in HEK293 cells expressing recombinant human TRPA1. Further details: expressed in transfected cells. The method, then:
The HEK293 cell line expressing recombinant human TRPA1 under the control of a tetracycline-regulated promoter was used in this assay (cf. example 2). Functional modulation of TRPA1 by the tested compounds was measured and quantified using the calcium sensitive fluorescent probe […] on a fluorescence microplate reader. Activation of TRPA1 by an agonist led to an increase in the intracellular calcium concentration and thus an increase in fluorescence intensity.
Procedure: Cells were cultured in DMEM (high glucose) supplemented with tetracycline-free FCS (10% v/v), L-glutamine (4 mM), blasticidin (15 μg/ml) and hygromycin (100 μg/mL) in a water-saturated atmosphere at 37° C. and 5% CO2. Cells were seeded onto 96-well clear-bottom black-walled assay plates at a density of 70,000 cells per well in 100 μl of cell culture medium. Expression of the ion channel was induced or not induced by addition of tetracycline (1 μg/ml final concentration) to the cell culture medium (while seeding the cells). Calcium influx into the living cells due to channel activation was monitored 24 h later using the calcium sensitive fluorescent probe […] on a fluorescence microplate reader (FlexStation® system, Molecular Devices). Therefore 100 μl Krebs-HEPES (KH) buffer (118 mM NaCl; 4.7 mM KCl; 1.3 mM CaCl2; 1.2 mM MgSO4; 1.2 mM KH2PO4; 4.2 mM NaHCO3; 10 mM Hepes, pH 7.4) supplemented with sulfinpyrazone (250 μM) and […] (4 μM) were added and the cells were incubated for an additional hour in a water-saturated atmosphere at 37° C. and 5% CO2.
Measurement of agonistic activity: Medium was replaced with 200 μl KH buffer supplemented with sulfinpyrazone (250 μM). Subsequently, 50 μl KH buffer supplemented with the agonists or control substances were added. Changes in fluorescence were recorded at 20-26° C.
Measurement of antagonistic activity (screening): Medium was replaced with 150 μl KH buffer supplemented with sulfinpyrazone (250 μM). Subsequently, 50 μl KH buffer supplemented with the screening compounds (50 μM; leading to a final concentration of 10 μM under measurement conditions) or control substances were added and the cells were incubated for 10 min. under assay conditions in the microplate reader. Changes in fluorescence were recorded at 20-26° C. after addition of 50 μl KH buffer supplemented with the TRPA1 agonist menthol (175 μM; leading to a final concentration of 35 μM under measurement conditions). The published TRPA1 antagonist AP-18 (Petrus, 2007) was used as a control for TRPA1-specific […] activity. Subsequently, the inventive compounds were tested for their capacity to reduce signals triggered by addition of propylparaben (EC80=80 μM), retinol (EC80=150 μM), and allyl isothiocyanate (EC80=5 μM) (cf. Table 2).
Analysis: Calcium mobilization was quantified as the change of peak fluorescence (ΔF) over the baseline level (F). The data was analyzed with the software of the microplate reader. Potential TRPA1 antagonists were tested in an effective range of 0.1-50 μM for their capacity to reduce the menthol-evoked signal.

Assay [2] deals with T1, TRPA1. As to the kind of experiment: Blinded in vivo study on the lid-cheek junction, stinging/burning induced by flufenamic acid. Particulars: compound 0.05% pre-incubated on one side of face, placebo on other; flufenamic acid 0.75%; 16 persons, two felt no stimulus. Further details: from tissue; host or cells: facial skin (lid-cheek junction) of human volunteers. As to the method: Antagonistic in vivo activity at TRPA1 was tested in a blinded study on the lid-cheek junction of 16 test persons. The ion channel was stimulated using a known TRPA1 agonist: flufenamic acid, a member of the group of NSAIDs (non-steroidal anti-inflammatory drugs) (Hu et al., 2010). The concentration of flufenamic acid was adjusted to a level that induced a pronounced stinging/burning sensation in the majority of the testers (0.75%).
Procedure: One side of the face (the lid-cheek junction) was pre-incubated with the antagonist (compound I.3, 0.05%)—the other side with placebo. Afterwards, flufenamic acid was applied to both sides simultaneously. Testers were asked several questions regarding their individual perception of irritation.
Analysis: Testers were asked if they could feel the NSAID-triggered stinging/burning. The strength of the stimulus was not judged. Then they were asked if they could perceive a difference between the two areas. If the answer was yes, they were asked which side was perceived as more pleasant. The antagonistic effect was graded in three categories: no reduction, reduction and strong reduction of the irritation. 10 out of 14 testers perceived a soothing effect by the use of the antagonist (two individuals felt no stimulus at all).

The target in assay [3] is T2, human TRPM8 (Homo sapiens, UniProt Q7Z2W7).
T2 construct: expressed in transfected cells; host or cells: HEK293 (tetracycline-regulated promoter)
T2 sequence (Q7Z2W7 whole entry): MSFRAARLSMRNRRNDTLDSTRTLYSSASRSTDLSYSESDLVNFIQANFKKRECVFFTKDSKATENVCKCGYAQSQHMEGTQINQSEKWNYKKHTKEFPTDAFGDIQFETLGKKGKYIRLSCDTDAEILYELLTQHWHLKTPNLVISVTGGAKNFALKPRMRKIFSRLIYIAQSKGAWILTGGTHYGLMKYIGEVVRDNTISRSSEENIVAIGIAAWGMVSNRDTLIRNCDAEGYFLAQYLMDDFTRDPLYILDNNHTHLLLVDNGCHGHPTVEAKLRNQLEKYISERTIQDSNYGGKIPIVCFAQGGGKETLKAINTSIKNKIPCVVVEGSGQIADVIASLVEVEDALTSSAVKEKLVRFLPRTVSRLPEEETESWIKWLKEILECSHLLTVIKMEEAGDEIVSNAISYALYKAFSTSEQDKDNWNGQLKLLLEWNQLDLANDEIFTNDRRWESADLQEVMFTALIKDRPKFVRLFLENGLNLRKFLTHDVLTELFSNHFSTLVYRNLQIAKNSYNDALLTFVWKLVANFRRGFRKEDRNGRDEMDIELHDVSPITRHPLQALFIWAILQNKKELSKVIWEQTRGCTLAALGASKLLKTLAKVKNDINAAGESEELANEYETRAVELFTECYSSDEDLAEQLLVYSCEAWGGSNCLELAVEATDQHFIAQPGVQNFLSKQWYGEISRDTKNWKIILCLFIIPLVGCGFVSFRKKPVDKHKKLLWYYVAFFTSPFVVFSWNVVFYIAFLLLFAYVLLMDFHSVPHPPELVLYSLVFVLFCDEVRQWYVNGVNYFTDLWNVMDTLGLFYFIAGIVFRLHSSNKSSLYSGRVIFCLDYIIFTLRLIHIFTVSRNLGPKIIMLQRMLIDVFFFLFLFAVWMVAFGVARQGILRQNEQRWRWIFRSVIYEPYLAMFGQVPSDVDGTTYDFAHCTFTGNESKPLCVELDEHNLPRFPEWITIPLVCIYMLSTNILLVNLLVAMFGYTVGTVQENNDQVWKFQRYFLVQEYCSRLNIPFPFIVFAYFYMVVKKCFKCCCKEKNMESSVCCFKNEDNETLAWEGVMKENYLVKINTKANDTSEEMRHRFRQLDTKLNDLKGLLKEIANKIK
As to the kind of experiment: Test for cross-selectivity on TRPM8: calcium assay in HEK293 cells expressing recombinant human TRPM8. It is filed as cell-based. The method, then: The test for cross-selectivity of the compounds on TRPM8 was performed in much the same way as the initial screening on TRPA1 (described in example 3). A HEK293 cell line expressing recombinant human TRPM8 under the control of a tetracycline-regulated promoter was used. Cells were cultured under the conditions mentioned in example 3. Functional modulation of TRPM8 was measured and quantified using the calcium sensitive fluorescent probe Fluo-4 AM on a fluorescence microplate reader. The assay was performed as described in example 3. Changes in fluorescence were recorded at 26-30° C. after addition of the compounds and/or the TRPM8 agonist menthol (EC80=12 μM). Dose-response curves are shown in FIGS. 5 to 9 (calcium assay) against menthol, which is known to trigger both TRPA1 as well as TRPM8. In particular, the antagonistic activity of compound I.3, II.3, III.3, IV.3 and V.3 at TRPA1 (open circles, continuous line) as well as the antagonistic activity of said compounds at TRPM8 (filled squares, dotted line) was measured and compared. Activation of the two ion channels was triggered by addition of menthol (EC80[TRPA1]=35 μM and EC80[TRPM8]=12 μM). The receptor signals were normalized to the pure menthol signal in each case.

Assay [4] deals with T1, TRPA1. Nature of the assay: Cell-based (label-free) impedance assay in HaCaT cells.
The mark [5] stands for this setting: agonist allyl isothiocyanate at EC80 (5 μM), read-out: Antagonistic activity (IC50) against Allyl isothiocyanate.
[6] abbreviates: agonist menthol at EC80 (35 μM final), read-out: Antagonistic activity (IC50) against Menthol.
[7] abbreviates: agonist propylparaben at EC80 (80 μM), read-out: Antagonistic activity (IC50) against Propylparaben.
Where [8] appears, read: agonist retinol at EC80 (150 μM), read-out: Antagonistic activity (IC50) against Retinol.

T1 sequence (O75762 whole entry): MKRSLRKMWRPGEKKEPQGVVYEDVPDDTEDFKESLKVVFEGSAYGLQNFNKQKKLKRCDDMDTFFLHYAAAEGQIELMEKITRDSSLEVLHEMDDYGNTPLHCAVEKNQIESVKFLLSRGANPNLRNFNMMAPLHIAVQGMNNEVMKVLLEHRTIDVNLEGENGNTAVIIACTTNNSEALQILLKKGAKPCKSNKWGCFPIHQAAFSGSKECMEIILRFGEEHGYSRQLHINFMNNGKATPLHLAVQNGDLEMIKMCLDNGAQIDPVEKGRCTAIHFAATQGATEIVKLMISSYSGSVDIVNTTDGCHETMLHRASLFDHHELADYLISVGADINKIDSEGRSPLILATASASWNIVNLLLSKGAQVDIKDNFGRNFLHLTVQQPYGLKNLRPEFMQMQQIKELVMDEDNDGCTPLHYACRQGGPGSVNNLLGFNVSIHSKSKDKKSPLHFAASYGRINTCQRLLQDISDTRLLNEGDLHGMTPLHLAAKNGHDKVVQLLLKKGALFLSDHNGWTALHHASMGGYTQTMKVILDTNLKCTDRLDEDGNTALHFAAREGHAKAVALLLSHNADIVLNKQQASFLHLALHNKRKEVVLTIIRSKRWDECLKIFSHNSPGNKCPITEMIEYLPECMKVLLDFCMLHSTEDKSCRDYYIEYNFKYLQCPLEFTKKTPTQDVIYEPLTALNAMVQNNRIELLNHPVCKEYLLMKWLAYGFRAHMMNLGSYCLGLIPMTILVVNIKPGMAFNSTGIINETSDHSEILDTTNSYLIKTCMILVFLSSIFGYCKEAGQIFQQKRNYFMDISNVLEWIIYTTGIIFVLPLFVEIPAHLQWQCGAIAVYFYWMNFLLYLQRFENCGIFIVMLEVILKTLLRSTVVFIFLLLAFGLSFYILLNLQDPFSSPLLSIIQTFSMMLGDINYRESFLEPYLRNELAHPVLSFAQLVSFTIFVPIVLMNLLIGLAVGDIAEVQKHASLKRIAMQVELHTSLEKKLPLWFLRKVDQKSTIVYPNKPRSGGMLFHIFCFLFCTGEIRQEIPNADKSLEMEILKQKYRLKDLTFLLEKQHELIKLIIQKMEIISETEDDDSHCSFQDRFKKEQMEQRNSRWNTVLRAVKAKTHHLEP

`COc1cc(C(=O)OC2CC3CCC2(C)C3(C)C)ccc1OC(C)=O` (centres unmarked) [Compound I.3]: the IC50 was 2.5 µM in assay [1] (setting [5]), 3.5 µM in assay [1] (setting [6]), 4.7 µM in assay [1] (setting [7]) and 3.4 µM in assay [1] (setting [8]). For the same compound, in assay [2], the “Testers who perceived a soothing effect by the use of the antagonist” value is 10 out of 14.
With `COC(=O)c1ccc(/C=C(\C#N)C(=O)Nc2ccccc2F)cc1` [Compound III.3], the IC50 in assay [1] (setting [5]) is 1.2 µM; in assay [1] (setting [6]), 0.1 µM; in assay [1] (setting [7]), 0.4 µM; in assay [1] (setting [8]), 0.4 µM.
Turning to `Cc1cc(/C=C2\C(=N)N3N=C(CC(=O)N4CCCC4)SC3=NC2=O)c(C)n1-c1cccc(Cl)c1` [Compound IV.3], the IC50 amounted to 3.5 µM in assay [1] (setting [5]), 0.3 µM in assay [1] (setting [6]), 4.3 µM in assay [1] (setting [7]) and 3.3 µM in assay [1] (setting [8]).
In the same order, the values of `CC(C)c1ccc2c(c1)CCC1[C@](C)(C(=O)O)CCC[C@]21C` (some centres unmarked) [Compound V.3] are 26 µM, 4.5 µM, 26 µM and 14 µM.
On to `C=CCN=C=S` [allyl isothiocyanate, reference compound], for which the “Agonistic efficacy at TRPA1 (EC80)” value in assay [1] was 5 µM.
Turning to `CC1CCC(C(C)C)C(O)C1` (centres unmarked) [menthol, 2-isopropyl-5-methyl-cyclohexanol, reference compound], in assay [3], the “Agonistic efficacy at TRPM8 (EC80)” value came to 12 µM. The “Agonistic efficacy at TRPA1 (EC80)” value in assay [1] was determined as 35 µM.
`CCCOC(=O)c1ccc(O)cc1` [propylparaben, reference compound]: the “Agonistic efficacy at TRPA1 (EC80)” value was determined as 200 µM in assay [4] and 80 µM in assay [1].
For `CC1=C(/C=C/C(C)=C/C=C/C(C)=C/CO)C(C)(C)CCC1` [retinol, reference compound], the “Agonistic efficacy at TRPA1 (EC80)” value in assay [1] stood at 150 µM.

The values above are taken from patent US10000438B2, “Small molecule inhibitors of TRPA1” (B.R.A.I.N. Biotechnology Research and Information Network AG, priority 2011, dated 2018).
